Measured values taken from US20250304549A1, “HYDROXYAMIDE DERIVATIVE AND USE THEREOF” (SICHUAN HUIYU PHARMACEUTICAL CO., LTD., priority 2022, published 2025).
Structures can show the parent of a compound that is named as a salt.

What was measured:
[1] = biological target: pan-HDAC; experiment: In vitro enzyme inhibition assay - HDAC (HDAC-Glo I/II), pan-HDAC; format: biochemical
Method in brief: (§1)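 Eight compound concentrations (5-fold steps from a 1 mM DMSO stock) tested against pan-HDAC, HDAC1 and HDAC8 with HDAC-Glo I/II reagents, luminescence read-out. Percent inhibition normalized to no-inhibitor and no-enzyme wells; IC50 derived by four-parameter logistic fit.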

[2] = tested on: DU145 cells; experiment: In vitro cell inhibition assay - DU145 cell proliferation (CellTiter-Glo); format: cell-based
Method: 5. In Vitro Cell Inhibition Assay—DU145 Cell Proliferation
The inhibitory effect of the compounds on cell proliferation was assessed by detecting the number of viable cells using the CellTiter-Glo® reagent. DU145 cells in the logarithmic growth phase were collected and inoculated into transparent bottom 96-well plates at a density 1×10^3 cells per well with 100 μL medium, and incubated at 37° C., 5% CO2 overnight. The compounds were sequentially diluted in a 5-fold concentration gradient with DMSO to obtain 8 different concentrations. These were then diluted with RPMI-640 (containing 10% FBS) cell culture medium to obtain the compound working solution (2×), which was added to the cell supernatant at 100 μL per well. The incubation continued for 6 days at 37° C., 5% CO2. The plate was then removed and equilibrated at room temperature (25° C.) along with the CellTiter-Glo® mixing reagent for 10-30 minutes. After centrifugation, 120 μL of the culture medium was carefully aspirated from each well, and 60 μL of CellTiter-Glo® reagent was added. The cells were thoroughly mixed with the CellTiter-Glo® mixing reagent using a microplate shaker for 2 min. and then incubated at room temperature for 10 min. The 96-well plate was subsequently placed on a multifunctional microplate reader to record the Luminescence values (RLU).
The inhibition rate was calculated using the following formula: […]
Note: ‘Negative’ refers to the group without inhibitors; ‘Blank’ refers to the group without cells.
The IC50 value was determined by fitting the inhibition rate by GraphPad Prism software.

[3] = tested on: NCI-H69 cells; experiment: In vitro cell inhibition assay - NCI-H69 cell proliferation (CellTiter-Glo); format: cell-based
Method in brief: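 CellTiter-Glo luminescence measured viability after a 7-day, 37° C. exposure of NCI-H69 cells (1×10^3/well) to an 8-point, 5-fold dilution series in RPMI-640/20% FBS. Inhibition was normalised to untreated and cell-free wells and IC50 derived by curve fitting.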

[4] = biological target: LSD1 (Homo sapiens (Human), UniProt O60341); experiment: In vitro enzyme inhibition assay - LSD1 (HTRF); format: biochemical
[5] = tested on: NCI-H1417 cells; experiment: In vitro cell inhibition assay - H1417 cell proliferation (CellTiter-Glo); format: cell-based
Method in brief: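 Cells exposed to 8 compound concentrations (5-fold dilutions) in BEGM with 10% FBS for 7 days at 37° C., 5% CO2. Viable cells measured by CellTiter-Glo luminescence; inhibition versus no-inhibitor and no-cell controls, IC50 fitted.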

[6] = biological target: HDAC8 (Homo sapiens (Human), UniProt Q9BY41); experiment: In vitro enzyme inhibition assay - HDAC (HDAC-Glo I/II), HDAC8; format: biochemical; settings: read-out: HDAC IC50 (nM) HDAC 8
Method in brief: as §1

[7] = Homo sapiens, DU-145, Du145 prostate cancer cell proliferation
[8] = Homo sapiens, NCI-H69, H69 small cell lung cancer cell proliferation
[9] = Homo sapiens, NCI-H1417, H1417 small cell lung cancer cell proliferation

HDAC8, sequence (Q9BY41 whole entry): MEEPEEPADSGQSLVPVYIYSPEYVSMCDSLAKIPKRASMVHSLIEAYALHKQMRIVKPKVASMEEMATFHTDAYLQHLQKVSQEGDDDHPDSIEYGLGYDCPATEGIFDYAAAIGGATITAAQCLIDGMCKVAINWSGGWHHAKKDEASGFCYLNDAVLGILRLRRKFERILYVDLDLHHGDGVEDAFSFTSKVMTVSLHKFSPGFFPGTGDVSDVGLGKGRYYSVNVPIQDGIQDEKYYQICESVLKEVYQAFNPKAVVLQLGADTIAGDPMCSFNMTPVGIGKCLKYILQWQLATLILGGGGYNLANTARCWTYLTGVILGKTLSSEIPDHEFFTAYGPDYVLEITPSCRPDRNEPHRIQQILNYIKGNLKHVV

SMILES | IC50 [1] [nM] | IC50 [2, 7] [nM] | IC50 [3, 8] [nM] | IC50 [4] [nM] | IC50 [5, 9] [nM] | IC50 [6] [nM] | IC50 ([2]; Du145 prostate cancer cell proliferation) [nM] | IC50 ([3]; H69 small cell lung cancer cell proliferation) [nM] | IC50 ([5]; H1417 small cell lung cancer cell proliferation) [nM]
N#Cc1ccc(-c2c(-c3ccc(C(F)(F)F)c(O)c3)cnc(N3CCC(NCc4ccc(/C=C/C(=O)NO)cc4)CC3)c2C#N)cc1F [Example 129, (E)-3-(4-(1-(3-Cyano-4-(4-cyano-3-fluorophenyl)-5-(3-hydroxy-4-(trifluoromethyl)phenyl)pyridin-2-yl)piperidin-4-yl)amino)methyl) phenyl)-N-hydroxyacrylamide formate] | 18.2 | 86.9 | 25.8 | 1.47 | 4.38 | 322 |  |  | 
COc1ccc(-c2cnc(N3CCC(NCc4ccc(/C=C/C(=O)NO)cc4)CC3)c(C(F)(F)F)c2-c2ccc(C#N)c(F)c2)cc1O [Example 147, (E)-3-(4-(4-(4-Cyano-3-fluorophenyl)-5-(3-hydroxy-4-methoxyphenyl)-3-(trifluoromethyl)pyridin-2-yl)piperidin-4-yl)amino)methyl) phenyl)-N-hydroxyacrylamide formate] |  |  |  | 153 |  |  | 658 | 440 | 255
COc1ccc(-c2cnc(N3CCC(NCCCc4ccc(C(=O)NO)cc4)CC3)c(C#N)c2-c2ccc(C#N)c(F)c2)cc1O [Example 107, 4-(3-(3-Cyano-4-(4-cyano-3-fluorophenyl)-5-(3-hydroxy-4-methoxyphenyl)pyridin-2-yl)piperidin-4-yl)amino)propyl)-N-hydroxybenzamide formate] | 378 | 2330 | 1040 | 1.29 | 10.4 | 50.6 |  |  | 
CN(C)c1ncc(-c2c(OCCCCCCC(=O)NO)cc(N3CCC(N)CC3)nc2-c2ccc(C#N)c(F)c2)cn1 [Example 13, 7-((6-(4-Aminopiperidin-1-yl)-2-(4-cyano-3-fluorophenyl)-3-(2-(dimethylamino)pyrimidin-5-yl)pyridin-4-yl)oxy)-N-hydroxyheptanamide formate] | 3.32 | 2770 | 775 | 1.95 | 332 |  |  |  | 
N#Cc1ccc(-c2c(-c3ccc4c(c3)OCO4)cnc(N3CCC(NCc4ccc(/C=C/C(=O)NO)cc4)CC3)c2C#N)cc1F [Example 103, (E)-3-(4-(((1-(5-(Benzo[d][1,3]dioxol-5-yl)-3-cyano-4-(4-cyano-3-fluorophenyl)pyridin-2-yl)piperidin-4-yl)amino)methyl)phenyl)-N-hydroxyacrylamide formate] | 62.3 | 254 | 83.6 | 14.2 | 43.3 | 159 |  |  | 
N#Cc1ccc(-c2c(-c3ccc(F)c(O)c3)cnc(N3CCC(NCc4ccc(/C=C/C(=O)NO)cc4)CC3)c2C#N)cc1F [Example 97, (E)-3-(4-((1-(3-Cyano-4-(4-cyano-3-fluorophenyl)-5-(4-fluoro-3-hydroxyphenyl)pyridin-2-yl)piperidin-4-yl)amino)methyl) phenyl)-N-hydroxyacrylamide formate] |  | 21 | 8.76 | 1.06 | 8.93 |  |  |  | 
COc1cc(-c2ccc(C(=O)N3CC[C@H](NCc4ccc(/C=C/C(=O)NO)cc4)C3)cc2-c2ccc(C#N)c(F)c2)ccc1O [Example 73, (S,E)-3-(4-(((1-(4″-Cyano-3″-fluoro-4-hydroxy-3-methoxy-[1,1]: 2′,1″-terphenyl]-4′-carbonyl)pyrrolidin-3-yl)amino)methyl)phenyl)-N-hydroxyacrylamide formate] | 186 | 2230 | 678 | 21.2 | 125 | 152 |  |  | 
COc1cc(-c2cnc(N3CCC(NCCc4cccc(/C=C/C(=O)NO)c4)CC3)c(C#N)c2-c2ccc(C#N)c(F)c2)ccc1O [Example 92, (E)-3-(3-(2-(1-(3-Cyano-4-(4-cyano-3-fluorophenyl)-5-(4-hydroxy-3-methoxyphenyl)pyridin-2-yl)piperidin-4-yl)amino)ethyl) phenyl)-N-hydroxyacrylamide formate] | 340 | 2370 | 497 | 1.41 | 63 | 623 |  |  | 
COc1ccc(-c2c(OCCCCCCC(=O)NO)cc(N3CCC(N)CC3)nc2-c2ccc(C#N)c(C)c2)cc1O [Example 16, 7-((6-(4-Aminopiperidin-1-yl)-2-(4-cyano-3-methylphenyl)-3-(3-hydroxy-4-methoxyphenyl)pyridin-4-yl)oxy)-N-hydroxyheptanamide hydrochloride] | 4.23 | 3700 | 3640 | 33.2 | > 1000 |  |  |  | 
N#Cc1ccc(-c2nc(N3CCC(N)CC3)cc(OCCCCCCC(=O)NO)c2-c2ccc(Cl)cc2)cc1F [Example 11, 7-((6-(4-Aminopiperidin-1-yl)-3-(4-chlorophenyl)-2-(4-cyano-3-fluorophenyl)pyridin-4-yl)oxy)-N-hydroxyheptanamide hydrochloride] | 116 | 2000 | 2360 |  | > 1000 |  |  |  | 
COc1ccc(-c2cnc(N3CCC(NCc4ccc(/C=C/C(=O)NO)cc4)CC3)c(C#N)c2-c2ccc(C#N)c(F)c2)c(O)c1O [Example 140, (E)-3-(4-(((1-(3-Cyano-4-(4-cyano-3-fluorophenyl)-5-(2,3-dihydroxy-4-methoxyphenyl)pyridin-2-yl)piperidin-4-yl)amino)methyl)phenyl)-N-hydroxyacrylamide formate] |  | 5190 | 405 | 44.2 | 220 |  |  |  | 
Cc1ccc(-c2c(OCCCCCCC(=O)NO)cc(N3CCC(N)CC3)nc2-c2ccc(C#N)c(F)c2)cc1 [Example 7, 7-[(6-(4-Aminopiperidin-1-yl)-2-(4-cyano-3-fluorophenyl)-3-(4-methylphenyl)pyridin-4-yl)oxy]-N-hydroxyheptanamide-hydrochloride] | 41.3 | 2960 | 2540 | 36 | 762 |  |  |  | 
Cn1nnc2cc(-c3cnc(N4CCC(NCc5ccc(/C=C/C(=O)NO)cc5)CC4)c(C#N)c3-c3ccc(C#N)c(F)c3)ccc21 [Example 141, (E)-3-(4-(((1-(3-Cyano-4-(4-cyano-3-fluorophenyl)-5-(1-methyl-1H-benzo[d][1,2,3]triazol-5-yl)pyridin-2-yl)piperidin-4-yl)amino)methyl)phenyl)-N-hydroxyacrylamide formate] |  | 129 | 95.8 | 1.72 | 31 |  |  |  | 
COc1ccc(-c2cnc(N3CCC(NCc4ccc(C(=O)NO)cc4)CC3)c(C#N)c2-c2ccc(C#N)c(F)c2)cc1O [Example 41, 4-(((1-(3-Cyano-4-(4-cyano-3-fluorophenyl)-5-(3-hydroxy-4-methoxyphenyl)pyridin-2-yl)piperidin-4-yl)amino)methyl)-N-hydroxybenzamide hydrochloride] |  | 5060 | 1680 | 0.13 | 1.29 |  |  |  | 
COc1ccc(-c2c(OCCCCCCC(=O)NO)cc(N3CCC(N)CC3)nc2-c2ccc(C#N)c(F)c2)cc1 [Example 8, 7-[(6-(4-Aminopiperidin-1-yl)-2-(4-cyano-3-fluorophenyl)-3-(4-methoxyphenyl)pyridin-4-yl)oxy]-N-hydroxyheptanamide trifluoroacetate] | 21.7 | 2850 | 2530 | 18.6 | 501 |  |  |  | 
COc1ccc(-c2cnc(N3CCC(CCc4ccc(/C=C/C(=O)NO)cc4)CC3)c(C#N)c2-c2ccc(C#N)c(F)c2)cc1O [Example 89, (E)-3-(4-(2-(1-(3-cyano-4-(4-cyano-3-fluorophenyl)-5-(3-hydroxy-4-methoxyphenyl)pyridin-2-yl)piperidin-4-yl)ethyl)phenyl)-N-hydroxyacrylamide] |  | 390 | 120 |  | > 1000 |  |  |  | 
